Laboratory results taken from patent US8080417B2, “Methods of ex vivo hematopoietic stem cell expansion by co-culture with mesenchymal cells” (priority 2004, dated 2011).

What was measured:
[1] = cited from earlier work
[2] = tested on: hematopoietic stem cells (mononuclear cells co-cultured with mesenchymal cells); assay: Mesenchymal-MNC co-culture at 21 days +/- Nicotinamide 5 mM: cell counts and surface markers; format: cell-based, human
Source text: Isolation of mesenchymal cells: Mononuclear cells containing mesenchymal cells from bone marrow were obtained from a […] prepared by negative immuno-depletion of CD3, CD14, CD19, CD38, CD66b, and glycophorin-A positive cells using a commercially available kit (RosetteSep®, StemCell Technologies, Vancouver, BC, Canada), as per manufacturer's instructions. […] Blood 90 Suppl. 1 347b, 1997 (abst)]. The immuno-depleted cells were harvested, and then either further separated by layering on a Ficoll-Paque (Amersham-Pharmacia, Piscataway, N.J., USA) density gradient column (1.077 g/cm^3) and centrifuged at 400×g for 30 minutes, or cultured without further separation. The collected cells were plated in T75 non-coated tissue culture flasks (Nunc) at a concentration of 2×10^5 cells/ml, in expansion medium containing: low glucose DMEM and 20% Fetal Bovine Serum (FBS, Hyclone, Logan, Utah, USA) supplemented with or without 10 ng/ml bFGF (Pepro Tech Inc, Rocky Hill N.J.), 0.05 mg/ml gentamicin (Sigma Inc., St. Louis, Mo.) and 2 mM L-glutamine (Biological Industries, Israel). Selected cells were allowed to adhere for 3-4 days and non-adherent cells were washed out with medium changes. Some experiments were initiated as well with the entire MNC fraction.
Maintenance and expansion of mesenchymal cells: When adherent mesenchymal cells reached approximately 80-90% confluence, they were detached with 0.25% trypsin-EDTA (Sigma, Inc. St Louis, Mo.), washed twice in DMEM and 20% Fetal Bovine Serum, with centrifugation, 400 g, 5 min., and re-plated at a 1:2 to 1:1000 dilution under the same culture conditions.
(§1) Mesenchymal hematopoietic co-cultures: Mesenchymal cultures were established as described above. After reaching confluence, the mesenchymal medium was discarded and replaced with fresh, hematopoietic supportive medium containing early acting or early and late acting cytokines, and hematopoietic cells selected from; cord blood, bone marrow, placenta or peripheral blood mononuclear cells or purified progenitor cells (CD34+ or CD133+ cells), with or without a modulator of cell fate. Mononuclear or purified stem and/or progenitor cells were isolated and prepared for ex-vivo culture as previously described (see, above, or, for example, PCT IL05/000753). At different intervals the non-adherent cells were harvested, analyzed for hematopoietic potential by functional analysis (clonogenic assay, CFU, etc), and re-cultured in a stroma-free medium. The stromal layer was then re-supplemented with fresh hematopoietic supportive medium (medium including 10% FCS, SCF, TPO, FLT3, and IL6). This process was repeated several times during two to six weeks co-culture duration (as on day 10, day 14, etc).
Immunophenotyping: At different time points the cells were detached with 1 mM EDTA (15′, 37° C.). The detached cells were washed with a PBS solution containing 1% BSA, and stained (at 4° C. for 30 min) with either fluorescein isothiocyanate (FITC) or phycoerythrin (PE)-conjugated antibodies: mesenchymal markers 105 PE, 105 FITC (Serotec), 73 PE, and 49b PE, and other, non-mesenchymal markers such as 45 FITC, 14 FITC, HLA-DR FITC (BD Biosciences Pharmngen), 34 PE (Dako, Carpenteria, Calif., USA), HLA class1 PE, (BD Biosciences Pharmingen, San Diego Calif.). The cells were then washed in the above buffer and analyzed using a FACScalibur® flow cytometer (Becton Dickinson and Co, San Jose, Calif., USA). Cells were passed at a rate of about 1000 cells/second, using saline as the sheath fluid. A 488 nm argon laser beam served as the light source for excitation. Emission of ten thousand cells was measured using logarithmic amplification and calculated using the cellQuest software.

[3] = tested on: hematopoietic stem cells (mononuclear cells co-cultured with mesenchymal cells); assay: Assay for Colony Forming Units (CFU) on 21-day mesenchymal-MNC co-culture; format: cell-based, human; conditions: Table 3 experiment; 21 days; Nicotinamide 5 mM
Source text: as §1
Assay for Colony Forming Units (CFU)—Cells were cloned in semi-solid, methylcellulose-containing medium supplemented with 2 IU/mL erythropoietin (Eprex, Cilag AG Int., Switzerland), stem cell factor and IL-3, both at 20 ng/mL, G-CSF and GM-CSF, both at 10 ng/mL (all from Pepro Tech, Rocky Hill, N.J.). […]

[4] = tested on: CD34+/CXCR4+ cells in hematopoietic stem cells co-cultured with mesenchymal cells; assay: CXCR4 in Mesenchymal-MNC co-culture at 21 days (CD34/CXCR4 double staining); format: cell-based, human; conditions: for Number of CD34+CXCR4+ cells: 21 days, co-culture + cytokines + Nicotinamide 5 mM; for % Increase of CD34+CXCR4+ cells: vs co-culture + cytokines without nicotinamide
Source text: Induction of CXCR4 expression in hematopoietic stem cells results in increased sensitivity to lower levels of SDF-1, increased migration of the cells to SDF-1, improved proliferation and survival of the hematopoietic stem cells in-vitro and in-vivo, and improved engraftment potential of the induced cells. Similarly, it has been shown that blockage of CXCR4 with specific antibodies prevents engraftment of hematopoietic stem cells (Brenner, et al Stem Cells 2004; 22:1128-33; Kahn et al, Blood, 2004; 103:2942-49; Peled et al, Science 1999; 283:845-48). In order to investigate the effect of modulators of cell fate on CXCR4 expression in hematopoietic stem cells in co-culture with mesenchymal cells, the population of CD34+/CXCR4+ cell in co-cultured cells was detected and quantified by double staining with PE labeled CD34 and FITC labeled CXCR4. […] This enhanced CXCR4 expression contributes to the enhanced engraftment potential of the expanded, undifferentiated hematopoietic stem cells.

[5] = tested on: hematopoietic stem cells (from bone marrow) co-cultured with mesenchymal cells; assay: Long-term Mesenchymal-MNC co-culture (21 days +/- Nicotinamide, then 5 weeks cytokines only), assessed at 8 weeks; format: cell-based, human
Description: Assay for Colony Forming Units (CFU)—Cells were cloned in semi-solid, methylcellulose-containing medium supplemented with 2 IU/mL erythropoietin (Eprex, Cilag AG Int., Switzerland), stem cell factor and IL-3, both at 20 ng/mL, G-CSF and GM-CSF, both at 10 ng/mL (all from Pepro Tech, Rocky Hill, N.J.). Cultures were incubated for 14 days at 37° C. in humidified atmosphere of 5% CO2 in air.
In order to determine the long-term effects of modulators of cell fate on the long-term engraftment potential of hematopoietic stem cells, CFUc, CD34+ and CD34+/CD38− cells were assessed in co-cultured cells at 8 weeks (5 weeks after removal of nicotinamide from the medium).
The mononuclear cell fraction, prepared as described above, was expanded in co-culture with mesenchymal cells in medium supplemented with cytokines and 5 mM nicotinamide, as described hereinabove, for 21 days. After 21 days, the medium was replaced with medium supplemented with cytokines only, and expansion in co-cultures continued for another 5 weeks. At 8 weeks, the expanded cells were assessed for hematopoietic stem cell markers (CD34+ and CD34+/CD38−), and for engraftment potential (CFUc), as described hereinabove.

[6] = Table 1 experiment, 21 days, Nicotinamide 5 mM
[7] = Table 2 experiment, 21 days, Nicotinamide 5 mM
[8] = Table 3 experiment, 21 days, Nicotinamide 5 mM
[9] = Table 4 experiment, 21 days, Nicotinamide 5 mM
[10] = 21 days Nicotinamide 5 mM then 5 weeks cytokines only

O=c1cc(N2CCOCC2)oc2c(-c3ccccc3)cccc12 [LY294002]
stability in tissue culture medium [1]: very stable

NC(=O)c1cccnc1 [Nicotinamide, nicotinamide]
CD34+CD38− (×10^4) [2, 6]: 304 ×10^4
CD34+Lin− (×10^4) [2, 6]: 25 ×10^4
TNC × 10^6 [2, 6]: 309 × 10^6
CD34+CD38− (×10^4) [2, 7]: 1238 ×10^4
CD34+Lin− (×10^4) [2, 7]: 689 ×10^4
TNC × 10^6 [2, 7]: 309 × 10^6
CD34+ (×10^4) [2, 8]: 1553 ×10^4
CD34+/TNC [2, 8]: 5.3%
CD34+CD38− (×10^4) [2, 8]: 82 ×10^4
TNC × 10^6 [2, 8]: 292 × 10^6
CD34+/TNC ([2]; Table 3 experiment, 21 days, Nicotinamide 5 mM, listed as nicotinamide): 5.3%
CD34+ (×10^4) [2, 9]: 216 ×10^4
CD34+/TNC [2, 9]: 1.5%
CD34+CD38− (×10^4) [2, 9]: 63 ×10^4
CD34+Lin− (×10^4) [2, 9]: 1.54 ×10^4
TNC × 10^6 [2, 9]: 144 × 10^6
CD34+/TNC ([2]; Table 4 experiment, 21 days, Nicotinamide 5 mM, listed as nicotinamide): 1.5%
greater expansion of stem cells (CD34+) relative to total nucleated cells, compared with cocultures without nicotinamide ([2]; Tables 3 and 4, 21 days, Nicotinamide 5 mM): ≤ 2.3 times
increase of the proportion of CD34+/38− cells and CD34+/Lin− cells in the cultures ([2]; with nicotinamide, in some cases, Tables 1-5): > 10 fold
CFU (×10^3) [3]: 4331 ×10^3
Number of CD34+CXCR4+ cells ([4]; Exp 1): 65 × 10^4
% Increase of CD34+CXCR4+ cells ([4]; Exp 1): 80%
Number of CD34+CXCR4+ cells ([4]; Exp 2): 200 × 10^4
% Increase of CD34+CXCR4+ cells ([4]; Exp 2): 33%
CD34+ cells (cumulative) [5, 10]: 264 × 10^6
CD34+/CD38− (%) [5, 10]: 6.3%
CFUc (cumulative) [5, 10]: 28 × 10^6
Fold Increase (%) of CD34+ cells (cumulative) ([5]; vs co-culture + cytokines): 235%
Fold Increase (%) of CD34+/CD38− (%) ([5]; vs co-culture + cytokines): 1050%
Fold Increase (%) of CFUc (cumulative) ([5]; vs co-culture + cytokines): 215%
